Like-named read-outs stand apart in the source and are kept apart here.
Columns and labels:
[1] = Systemic delivery study: plasma pharmacokinetics after iontophoretic patch or subcutaneous injection; type: in vivo, domestic swine; details: subcutaneous 6 mg; for Cmax / half-life / AUC(0-t): pig, sc; for half-life: read-out: t½ (converted)
Description: The purpose of the study was to determine the systemic plasma exposure, absorption characteristics and elimination characteristics of the active agent Dexamethasone sodium phosphate, (DexP) when administered from either a subcutaneous injection or an iontophoretic patch in domestic swine.
The patch is an active (iontophoretic) drug delivery patch which employs a low-level electrical field produced by a novel power source incorporated into the patch to “drive” the drug into the body in a pain-free manner. This system has advantages over passive patches, including more rapid and controlled delivery and the ability to deliver a wider variety of drugs.
The study entailed administration of DexP from three concurrently applied patches delivered at 150 μA, 225 μA and 300 μA over a 9 hour period in 1 male and 1 female domestic swine. Each patch contained a 10 mg/ml Dexamethasone sodium phosphate gel (2% HPMC) in the donor cell compartment, and a 0.9% saline gel (2% HPMC) in the return cell compartment. As a comparator, a subcutaneous 6 mg dose of DexP was delivered to 1 male and 1 female domestic swine. All animals were implanted with a central venous access port (Hickman catheter) prior to administration of the drug and plasma samples were obtained pre-dosing and up to 24 hours after dosing. Samples were analyzed for the presence of dexamethasone phosphate and the data tabulated and selected pharmacokinetic parameters were calculated.

[2] = iontophoresis of 4 mg/ml solution, charge dosage 40-80 mA-minutes, cited from earlier work
[3] = in vivo, female swine (animal 8P168)
[4] = in vivo, male swine (animal 8P167)

Row | Compound | Cmax [1, 3] [ng/mL] | half-life [1, 3] [h] | Cmax [1, 4] [ng/mL] | AUC(0-t) ([1]; in vivo, male swine (animal 8P167), read-out: AUC(0-12)) [ng·h/mL] | half-life [1, 4] [h] | AUC(0-t) ([1]; plasma, female swine, read-out: AUC(0-14)) [ng·h/mL] | AUC(0-12) ([1]; female swine (animal 8P168)) [ng·h/mL] | amount of dexamethasone delivered (highest estimate) ([2]; J Pharm Compounding 2003) [milligrams] | amount of dexamethasone delivered (lowest estimate) ([2]; Petelenz 1992) [micrograms]
1 | C[C@@H]1C[C@H]2[C@@H]3CCC4=CC(=O)C=C[C@]4(C)[C@@]3(F)[C@@H](O)C[C@]2(C)[C@@]1(O)C(=O)COP(=O)(O)O [DexP, Dexamethasone sodium phosphate] | 27.3 | 1.5 | 28.4 | 36.4 | 0.85 | 60.5 | 60.5 |  | 
2 | C[C@@H]1C[C@H]2[C@@H]3CCC4=CC(=O)C=C[C@]4(C)[C@@]3(F)[C@@H](O)C[C@]2(C)[C@@]1(O)C(=O)CO [dexamethasone] |  |  |  |  |  |  |  | 1.4 | 10
